# Data published in patent US9018165B2, “Process for the synchronization of ovulation for timed breeding without heat detection” (priority 2003, dated 2015).
# What was measured:
# mature postpartum sows = assay: Intravulvar injection at estrus detection with AI in mature postpartum sows (Example 2); assay type: in vivo, swine; details: 50 mcg intravulvar at first estrus detection
# Description: Sows were assigned randomly in blocks of two to either control or to be injected intravulvar with 50 mcg of deslorelin in SAIB at the time of estrus detection for sows first detected in estrus in the a.m. and 12 hours later for those first detected in estrus in the p.m. Treated animals were bred AI upon detected estrus and again 24 hours later if still in estrus. Controls received a saline injection on first detected estrus behavior estrus detection and were bred according to the farm's normal procedures.
# postpartum sows = assay: Timed injection 96 hours post-weaning and single timed insemination without estrus detection (Example 3); assay type: in vivo, swine; details: 50 mcg in SAIB 96 hours post-weaning; single insemination 28+/-2 hours later
# Description: Approximately 170 postpartum sows were randomly divided into two equal groups comprised of controls and treated. Following weaning, the controls were detected for estrus and bred following the normal standard operating procedures for the farms on which they resided. The treated sows received a 50 mcg dose of deslorelin in SAIB at 96 hours post-weaning and were bred with a single insemination 28+/−2 hours later with no regard to estrus detection. The sows were examined for pregnancy by ultrasound at 21 days and slaughtered around 28 days post breeding. The entire reproductive tract was removed and corpora lutea and embryos were counted.
smiles,measurement,setting,value
"CCNC(=O)[C@@H]1CCCN1C(=O)[C@H](CCCN=C(N)N)NC(=O)[C@H](CC(C)C)NC(=O)[C@@H](Cc1c[nH]c2ccccc12)NC(=O)[C@H](Cc1ccc(O)cc1)NC(=O)[C@H](CO)NC(=O)[C@H](Cc1c[nH]c2ccccc12)NC(=O)[C@H](Cc1cnc[nH]1)NC(=O)[C@@H]1CCC(=O)N1 [Deslorelin, deslorelin]","difference in pregnancy rates, Control versus Treated (in words)",mature postpartum sows,no significant difference
same,Embryo Survival,postpartum sows,64%
